pEC50, pKi: −log10 of the molar value.
Tests used:
[1] = target: 5-hydroxytryptamine receptor 1B (Homo sapiens, UniProt P28222); experiment: Binding affinity to 5HT1B receptor (unknown origin)
[2] = target: Histamine H2 receptor (Homo sapiens, UniProt P25021); experiment: Binding affinity to histamine H2 receptor (unknown origin)
[3] = Binding affinity to benzodiazepine receptor in rat brain; format: tissue-based
[4] = target: Alpha-1D adrenergic receptor (Homo sapiens, UniProt P25100); experiment: Binding affinity to adrenergic alpha1D receptor (unknown origin)
[5] = Binding affinity to sigma 2 receptor (unknown origin); set-up: species or system Homo sapiens
[6] = target: 5-hydroxytryptamine receptor 2B (Homo sapiens, UniProt P41595); experiment: Binding affinity to 5HT2B receptor (unknown origin)
[7] = target: Alpha-2B adrenergic receptor (Homo sapiens, UniProt P18089); experiment: Binding affinity to adrenergic alpha2B receptor (unknown origin)
[8] = target: T1, 5-hydroxytryptamine receptor 1A (Homo sapiens, UniProt P08908); experiment: Partial agonist activity at human 5HT1A receptor expressed in CHO cells assessed as increase in [35S]GTPgammaS binding; format: functional, cell-based
T1 sequence (P08908 whole entry): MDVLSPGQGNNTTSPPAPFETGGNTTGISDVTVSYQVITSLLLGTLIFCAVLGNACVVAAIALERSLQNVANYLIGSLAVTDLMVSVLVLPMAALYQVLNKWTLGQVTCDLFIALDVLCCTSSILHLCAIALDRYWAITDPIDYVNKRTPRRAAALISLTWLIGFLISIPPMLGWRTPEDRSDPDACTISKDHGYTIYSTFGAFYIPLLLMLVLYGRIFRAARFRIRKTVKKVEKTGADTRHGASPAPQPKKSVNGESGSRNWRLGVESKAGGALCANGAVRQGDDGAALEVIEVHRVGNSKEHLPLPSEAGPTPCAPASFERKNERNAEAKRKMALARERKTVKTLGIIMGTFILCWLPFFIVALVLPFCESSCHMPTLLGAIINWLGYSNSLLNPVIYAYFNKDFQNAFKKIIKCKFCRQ

[9] = target: Alpha-2A adrenergic receptor (Homo sapiens, UniProt P08913); experiment: Binding affinity to adrenergic alpha2A receptor (unknown origin)
[10] = target: Alpha-2C adrenergic receptor (Homo sapiens, UniProt P18825); experiment: Binding affinity to adrenergic alpha2C receptor (unknown origin)
[11] = target: Alpha-1A adrenergic receptor (Homo sapiens, UniProt P35348); experiment: Binding affinity to adrenergic alpha1A receptor (unknown origin)
[12] = target: D(2) dopamine receptor (Homo sapiens, UniProt P14416); experiment: Binding affinity to dopamine 2 receptor (unknown origin)
[13] = target: Sigma non-opioid intracellular receptor 1 (Homo sapiens, UniProt Q99720); experiment: Binding affinity to sigma 1 receptor (unknown origin)
[14] = target: T1, 5-hydroxytryptamine receptor 1A; experiment: Binding affinity to 5HT1A receptor (unknown origin)
[15] = target: Alpha-1B adrenergic receptor (Homo sapiens, UniProt P35368); experiment: Binding affinity to adrenergic alpha1B receptor (unknown origin)
[16] = target: 5-hydroxytryptamine receptor 2A (Homo sapiens, UniProt P28223); experiment: Binding affinity to 5HT2A receptor (unknown origin)
[17] = target: 5-hydroxytryptamine receptor 1D (Homo sapiens, UniProt P28221); experiment: Binding affinity to 5HT1D receptor (unknown origin)
[18] = target: D(3) dopamine receptor (Homo sapiens, UniProt P35462); experiment: Binding affinity to dopamine 3 receptor (unknown origin)
[19] = target: Histamine H1 receptor (Homo sapiens, UniProt P35367); experiment: Binding affinity to histamine H1 receptor (unknown origin)
[20] = target: 5-hydroxytryptamine receptor 7 (Homo sapiens, UniProt P34969); experiment: Binding affinity to 5HT7 receptor (unknown origin)
[21] = target: 5-hydroxytryptamine receptor 1A (Homo sapiens) (UniProt P08908); experiment: Partial agonist activity at human 5HT1A receptor expressed in CHO cells assessed as increase in [35S]GTPgammaS binding relative to serotonin; format: functional, cell-based
[22] = target: D(1A) dopamine receptor (Homo sapiens, UniProt P21728); experiment: Binding affinity to dopamine 1 receptor (unknown origin)
[23] = target: 5-hydroxytryptamine receptor 5A (Homo sapiens, UniProt P47898); experiment: Binding affinity to 5HT5A receptor (unknown origin)
[24] = target: D(4) dopamine receptor (Homo sapiens, UniProt P21917); experiment: Binding affinity to dopamine 4 receptor (unknown origin)
Chain of D(4) dopamine receptor (P21917 whole entry): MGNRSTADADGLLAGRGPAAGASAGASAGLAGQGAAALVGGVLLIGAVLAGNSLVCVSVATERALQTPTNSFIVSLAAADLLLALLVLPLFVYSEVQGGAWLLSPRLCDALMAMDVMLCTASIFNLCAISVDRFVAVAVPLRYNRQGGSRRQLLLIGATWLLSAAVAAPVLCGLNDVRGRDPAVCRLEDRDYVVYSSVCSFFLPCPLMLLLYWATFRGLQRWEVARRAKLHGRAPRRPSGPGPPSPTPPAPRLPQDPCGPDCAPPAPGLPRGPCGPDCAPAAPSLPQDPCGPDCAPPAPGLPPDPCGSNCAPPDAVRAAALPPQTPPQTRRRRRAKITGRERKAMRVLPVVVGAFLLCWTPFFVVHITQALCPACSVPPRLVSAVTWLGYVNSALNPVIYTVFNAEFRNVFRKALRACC

Chain of D(3) dopamine receptor (P35462 whole entry): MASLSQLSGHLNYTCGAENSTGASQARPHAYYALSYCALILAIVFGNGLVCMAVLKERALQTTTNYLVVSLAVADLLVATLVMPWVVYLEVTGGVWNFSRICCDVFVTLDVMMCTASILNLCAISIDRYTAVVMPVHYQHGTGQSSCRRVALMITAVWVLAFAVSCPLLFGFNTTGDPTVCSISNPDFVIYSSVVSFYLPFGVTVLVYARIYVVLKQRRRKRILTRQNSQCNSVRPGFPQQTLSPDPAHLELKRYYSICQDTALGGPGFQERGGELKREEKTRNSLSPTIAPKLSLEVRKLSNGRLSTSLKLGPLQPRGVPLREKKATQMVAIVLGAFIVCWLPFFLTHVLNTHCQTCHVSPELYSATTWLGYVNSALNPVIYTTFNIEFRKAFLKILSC
Chain of 5-hydroxytryptamine receptor 1B (P28222 whole entry): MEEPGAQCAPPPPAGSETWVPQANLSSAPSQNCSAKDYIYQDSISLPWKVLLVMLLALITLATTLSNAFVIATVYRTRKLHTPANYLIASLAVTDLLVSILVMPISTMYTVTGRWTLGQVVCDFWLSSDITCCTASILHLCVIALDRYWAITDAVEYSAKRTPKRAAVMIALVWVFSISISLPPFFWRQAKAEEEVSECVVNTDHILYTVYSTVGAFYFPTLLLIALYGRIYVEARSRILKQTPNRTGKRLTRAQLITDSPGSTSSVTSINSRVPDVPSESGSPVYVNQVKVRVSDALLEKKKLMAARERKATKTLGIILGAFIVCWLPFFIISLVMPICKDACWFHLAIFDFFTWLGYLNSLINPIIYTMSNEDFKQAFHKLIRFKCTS
Chain of Alpha-1B adrenergic receptor (P35368 whole entry): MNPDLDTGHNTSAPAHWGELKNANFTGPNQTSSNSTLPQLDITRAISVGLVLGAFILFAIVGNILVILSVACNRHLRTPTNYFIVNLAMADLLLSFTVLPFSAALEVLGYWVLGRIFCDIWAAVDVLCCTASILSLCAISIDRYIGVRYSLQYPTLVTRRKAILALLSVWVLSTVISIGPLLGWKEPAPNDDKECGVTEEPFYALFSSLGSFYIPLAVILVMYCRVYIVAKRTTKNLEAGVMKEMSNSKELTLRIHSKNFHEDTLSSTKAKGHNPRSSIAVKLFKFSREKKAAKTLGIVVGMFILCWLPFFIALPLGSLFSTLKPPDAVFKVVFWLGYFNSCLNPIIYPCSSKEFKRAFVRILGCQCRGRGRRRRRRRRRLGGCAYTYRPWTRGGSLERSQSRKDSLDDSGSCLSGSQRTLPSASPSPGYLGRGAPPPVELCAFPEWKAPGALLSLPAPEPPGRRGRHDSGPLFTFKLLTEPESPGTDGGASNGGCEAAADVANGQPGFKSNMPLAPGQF
Chain of 5-hydroxytryptamine receptor 7 (P34969 whole entry): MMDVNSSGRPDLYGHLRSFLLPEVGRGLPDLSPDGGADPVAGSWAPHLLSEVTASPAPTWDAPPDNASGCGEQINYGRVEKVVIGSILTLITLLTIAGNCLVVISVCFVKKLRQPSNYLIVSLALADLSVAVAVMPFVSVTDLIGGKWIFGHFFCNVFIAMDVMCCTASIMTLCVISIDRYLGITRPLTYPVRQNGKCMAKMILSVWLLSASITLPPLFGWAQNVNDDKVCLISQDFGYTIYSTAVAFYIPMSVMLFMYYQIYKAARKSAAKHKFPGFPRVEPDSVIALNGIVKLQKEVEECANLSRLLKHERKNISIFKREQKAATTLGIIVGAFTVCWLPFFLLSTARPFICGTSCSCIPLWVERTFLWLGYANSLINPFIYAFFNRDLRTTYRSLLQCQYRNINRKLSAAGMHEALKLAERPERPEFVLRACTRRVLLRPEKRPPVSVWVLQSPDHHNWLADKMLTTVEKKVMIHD
Chain of Alpha-2A adrenergic receptor (P08913 whole entry): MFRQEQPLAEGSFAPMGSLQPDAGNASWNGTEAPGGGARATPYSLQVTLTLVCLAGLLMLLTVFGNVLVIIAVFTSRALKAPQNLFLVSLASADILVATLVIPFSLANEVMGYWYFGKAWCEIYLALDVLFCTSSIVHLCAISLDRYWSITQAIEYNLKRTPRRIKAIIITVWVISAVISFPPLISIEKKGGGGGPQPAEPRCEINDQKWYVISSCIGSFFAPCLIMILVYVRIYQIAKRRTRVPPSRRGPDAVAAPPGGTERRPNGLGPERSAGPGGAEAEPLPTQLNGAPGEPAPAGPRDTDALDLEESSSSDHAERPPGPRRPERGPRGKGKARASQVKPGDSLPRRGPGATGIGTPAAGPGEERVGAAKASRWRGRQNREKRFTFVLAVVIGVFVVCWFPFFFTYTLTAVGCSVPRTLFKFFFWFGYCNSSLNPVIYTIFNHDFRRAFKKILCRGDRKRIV
Chain of D(1A) dopamine receptor (P21728 whole entry): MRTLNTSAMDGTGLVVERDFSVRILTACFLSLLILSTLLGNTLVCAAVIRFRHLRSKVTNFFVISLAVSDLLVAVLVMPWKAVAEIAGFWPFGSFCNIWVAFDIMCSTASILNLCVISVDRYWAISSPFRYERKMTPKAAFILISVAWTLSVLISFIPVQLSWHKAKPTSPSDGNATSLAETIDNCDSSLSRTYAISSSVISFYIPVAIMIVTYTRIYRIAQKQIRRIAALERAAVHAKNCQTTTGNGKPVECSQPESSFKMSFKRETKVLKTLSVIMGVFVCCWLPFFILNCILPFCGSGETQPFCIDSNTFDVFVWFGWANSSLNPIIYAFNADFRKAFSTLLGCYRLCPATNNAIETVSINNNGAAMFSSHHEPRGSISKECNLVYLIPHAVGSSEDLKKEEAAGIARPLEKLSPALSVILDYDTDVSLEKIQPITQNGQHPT
Chain of Histamine H1 receptor (P35367 whole entry): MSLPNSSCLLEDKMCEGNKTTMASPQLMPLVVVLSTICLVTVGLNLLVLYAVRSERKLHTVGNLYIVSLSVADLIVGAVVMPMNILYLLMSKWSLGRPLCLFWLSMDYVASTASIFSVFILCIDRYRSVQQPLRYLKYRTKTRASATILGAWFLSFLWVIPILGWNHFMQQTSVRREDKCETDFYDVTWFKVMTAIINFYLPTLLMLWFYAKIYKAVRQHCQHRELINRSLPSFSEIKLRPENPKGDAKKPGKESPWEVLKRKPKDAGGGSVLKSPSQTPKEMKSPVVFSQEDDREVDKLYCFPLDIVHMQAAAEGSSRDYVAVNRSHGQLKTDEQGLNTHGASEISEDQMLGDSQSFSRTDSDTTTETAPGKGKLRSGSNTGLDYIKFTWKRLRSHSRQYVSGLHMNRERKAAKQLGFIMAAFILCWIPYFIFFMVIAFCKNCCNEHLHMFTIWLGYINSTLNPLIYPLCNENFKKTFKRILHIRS
Chain of 5-hydroxytryptamine receptor 2A (P28223 whole entry): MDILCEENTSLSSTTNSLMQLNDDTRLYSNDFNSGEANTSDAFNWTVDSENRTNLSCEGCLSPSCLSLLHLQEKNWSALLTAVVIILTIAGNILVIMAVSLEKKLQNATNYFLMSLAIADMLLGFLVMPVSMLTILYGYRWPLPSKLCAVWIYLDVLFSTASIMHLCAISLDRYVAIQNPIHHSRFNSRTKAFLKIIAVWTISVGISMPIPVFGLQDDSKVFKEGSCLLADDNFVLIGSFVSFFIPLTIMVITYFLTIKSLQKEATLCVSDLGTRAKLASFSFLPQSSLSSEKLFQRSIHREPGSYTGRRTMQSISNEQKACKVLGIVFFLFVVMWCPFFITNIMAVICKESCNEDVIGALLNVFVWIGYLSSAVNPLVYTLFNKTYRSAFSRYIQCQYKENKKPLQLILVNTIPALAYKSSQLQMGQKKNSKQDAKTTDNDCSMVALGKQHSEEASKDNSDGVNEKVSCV
Chain of Alpha-1A adrenergic receptor (P35348 whole entry): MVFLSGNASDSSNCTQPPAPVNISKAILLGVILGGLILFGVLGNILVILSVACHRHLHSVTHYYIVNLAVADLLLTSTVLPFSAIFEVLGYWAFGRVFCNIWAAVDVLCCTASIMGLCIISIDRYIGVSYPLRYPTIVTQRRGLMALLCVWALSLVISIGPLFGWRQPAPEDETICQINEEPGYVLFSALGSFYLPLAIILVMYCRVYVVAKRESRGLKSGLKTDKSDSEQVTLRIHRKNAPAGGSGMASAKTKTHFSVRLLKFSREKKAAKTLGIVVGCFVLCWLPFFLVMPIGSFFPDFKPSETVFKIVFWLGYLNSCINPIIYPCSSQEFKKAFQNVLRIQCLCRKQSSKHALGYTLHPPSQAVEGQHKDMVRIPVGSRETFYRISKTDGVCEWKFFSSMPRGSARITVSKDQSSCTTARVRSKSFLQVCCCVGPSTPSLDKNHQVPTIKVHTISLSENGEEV
Chain of 5-hydroxytryptamine receptor 5A (P47898 whole entry): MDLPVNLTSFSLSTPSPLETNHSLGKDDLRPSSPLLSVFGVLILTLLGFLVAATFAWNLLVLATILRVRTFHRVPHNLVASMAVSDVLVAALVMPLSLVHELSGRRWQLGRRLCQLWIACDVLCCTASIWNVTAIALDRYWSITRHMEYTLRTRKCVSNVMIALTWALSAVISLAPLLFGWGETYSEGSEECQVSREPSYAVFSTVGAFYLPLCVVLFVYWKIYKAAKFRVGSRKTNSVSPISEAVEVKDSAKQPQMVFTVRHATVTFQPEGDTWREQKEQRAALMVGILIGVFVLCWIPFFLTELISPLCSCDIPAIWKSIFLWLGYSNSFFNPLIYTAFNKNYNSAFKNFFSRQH

| Compound | pKi [1] | pKi [2] | pKi [3] | pKi [4] | pKi [5] | pKi [6] | pKi [7] | pEC50 [8] | pKi [9] | pKi [10] | pKi [11] | pKi [12] | pKi [13] | pKi [14] | pKi [15] | pKi [16] | pKi [17] | pKi [18] | pKi [19] | pKi [20] | other results |
| --- | --- | --- | --- | --- | --- | --- | --- | --- | --- | --- | --- | --- | --- | --- | --- | --- | --- | --- | --- | --- | --- |
| COc1ccccc1N1CCN(CCCCn2ncc(=O)n(C)c2=O)CC1 | 6.19 | 5.67 | < 5.00 | < 5.00 | 6.91 | 7.13 | 6.62 | 10.00 | 7.02 | 7.82 | 8.17 | < 5.00 | 7.23 | 9.82 | < 5.00 | 5.30 | 7.05 | < 5.00 | 5.99 | 7.89 | Emax [21]: 80%; pKi [22]: < 5.00; pKi [23]: < 5.00; pKi [24]: 7.68 |
| Cn1c(=O)cnn(CCCCN2CCN(c3ccccc3OCCF)CC2)c1=O | 6.39 | 5.75 | 5.20 | 7.20 | 5.76 | 6.52 | 7.25 | 9.19 | 5.56 | 6.76 | 7.67 | 7.43 | < 5.00 | 10.00 | 7.57 | < 5.00 | 6.63 | 7.66 | 6.29 | 7.76 | Emax [21]: 77%; pKi [22]: < 5.00; pKi [23]: 5.67; pKi [24]: 7.15 |

— ChEMBL document CHEMBL2413016, “Synthesis and in vivo evaluation of [(18)F]2-(4-(4-(2-(2-fluoroethoxy)phenyl)piperazin-1-yl)butyl)-4-methyl-1,2,4-triazine-3,5(2H,4H)-dione ([(18)F]FECUMI-101) as an imaging probe for 5-HT1A receptor agonist in nonhuman primates” (Bioorg Med Chem, 2013)
